{"source": "patent US6576190B1", "about": "“Method and apparatus for sterilizing and disinfecting bedclothes using ultraviolet rays and ozone” (Bioneer Corporation, priority 1999, dated 2003)", "key": {"[1]": {"tested_on": "Candida albicans KCTC 7965", "assay": "Test for sterilizing microorganisms, ozone exposure of agar culture", "format": "cell-based", "conditions": "C. albicans, ozone 70 ppm, humidity 50%, no direct UV", "from_the_text": "(§1) The microorganisms used for the sterilization test were Escherichia coli DH12S, Staphylococcus aureus KCTC 1621 and Candida albicans KCTC 7965, which are known as pathogenic microorganisms. An UV/O3 lamp ([…]) was used as the generator for generating ultraviolet rays and ozone.\n(§2) Each of the microorganisms was cultivated on appropriate culture medium used commonly: Escherichia coli was cultivated on LB culture medium, Staphylococcus aureus was cultivated on Tryptic Soy culture medium; and Candida albicans was cultivated on YM culture medium. A sample of the microorganism was prepared as follows: After each of the microorganisms was cultivated on agar culture medium, one colony was taken. And then the colony was inoculated into broths of 5 ml, which was cultivated for two hours. The sample prepared as mentioned above was kept in cold storage for the following use. The broths used for cultivation were diluted gradually from an undiluted solution to 10-8, and then they were painted over the agar culture medium. One control was obtained from each of the diluted samples, and seven samples for test were obtained from each of the diluted samples. The control and samples were subject to pre-incubation in the incubator with the temperature of 37° C. for 30 minutes, which was used for sterilization test.\n(§3) The concentration of the ozone in the sterilizing and disinfecting room reached 50 ppm within two or three minutes. And the concentration of the ozone was adjusted so that it was maintained to 70 ppm.\n(§4) The humidity was maintained to 50%. The agar culture medium was placed on several position where it was not exposed to the ultraviolet rays and it had good ventilation. One agar culture medium corresponding to the bedclothes as a test sample was taken every ten minutes after the generator for generating the ultraviolet rays and the ozone was operated. The agar culture medium was cultivated together with the control sample in the incubator with the temperature of 37° C. for 48 hours. […] The number of the real microorganisms and the number of the surviving microorganisms were added together taking the number of the colony and the dilution rate of each sample into account. The test as mentioned above was repeated three times for the purpose of obtaining the statistical effectiveness."}, "Escherichia coli DH12S": {"tested_on": "Escherichia coli DH12S", "assay": "Test for sterilizing microorganisms, ozone exposure of agar culture", "format": "cell-based", "conditions": "E. coli, ozone 70 ppm, humidity 50%, no direct UV", "from_the_text": "as §1, §2, §3, §4"}, "[2]": {"tested_on": "Staphylococcus aureus KCTC 1621", "assay": "Test for sterilizing microorganisms, ozone exposure of agar culture", "format": "cell-based", "conditions": "S. aureus, ozone 70 ppm, humidity 50%, no direct UV", "from_the_text": "as §1, §2, §3, §4"}, "[3]": {"tested_on": "house dust mites (Dermatophagoides farinae, Dermatophagoides pterohyssinus and Tyrophagus putrescentiae mixed)", "assay": "Test for killing mites", "format": "in vivo", "conditions": "ozone 50 ppm, humidity 72%, 2 hours, no direct UV", "from_the_text": "Mites used for test was the house dust mites (samples containing Dermatophagoides farinae, Dermatophagoides pterohyssinus and Tyrophagus putrescentiae mixed up one another were used) which were generally known as primary cause of allergy, which was distributed from the parasitology class of the medical college of Yonsei University in Korea. After the opening the lid of the tube containing twenty mites, the mites were exposed to the environment with the ozone of 50 ppm and the humidity of 72% for 2 hours while the mites were not exposed directly to the ultraviolet rays. After exposition of the mites to the ozone for a given time period, the number of the surviving mites and the number of the dead mites were counted by means of a microscopic examination."}}}
{"smiles": "O=[O+][O-]", "note": "[ozone]", "values": [{"measurement": "Number of surviving microorganisms (surviving colonies)", "setting": "[1]; exposure 10 min.", "result": "12,400"}, {"measurement": "Number of surviving microorganisms (surviving colonies)", "setting": "[1]; exposure 20 min.", "result": "2,840"}, {"measurement": "Number of surviving microorganisms (surviving colonies)", "setting": "[1]; exposure 30 min.", "result": 960}, {"measurement": "Number of surviving microorganisms (surviving colonies)", "setting": "[1]; exposure 40 min.", "result": 388}, {"measurement": "Number of surviving microorganisms (surviving colonies)", "setting": "[1]; exposure 50 min.", "result": 192}, {"measurement": "Number of surviving microorganisms (surviving colonies)", "setting": "[1]; exposure 60 min.", "result": 118}, {"measurement": "Number of surviving microorganisms (surviving colonies)", "setting": "Escherichia coli DH12S; exposure 10 min.", "result": "11,000"}, {"measurement": "Number of surviving microorganisms (surviving colonies)", "setting": "Escherichia coli DH12S; exposure 20 min.", "result": "2,700"}, {"measurement": "Number of surviving microorganisms (surviving colonies)", "setting": "Escherichia coli DH12S; exposure 30 min.", "result": 559}, {"measurement": "Number of surviving microorganisms (surviving colonies)", "setting": "Escherichia coli DH12S; exposure 40 min.", "result": 270}, {"measurement": "Number of surviving microorganisms (surviving colonies)", "setting": "Escherichia coli DH12S; exposure 50 min.", "result": 101}, {"measurement": "Number of surviving microorganisms (surviving colonies)", "setting": "Escherichia coli DH12S; exposure 60 min.", "result": 52}, {"measurement": "Number of surviving microorganisms (surviving colonies)", "setting": "[2]; exposure 10 min.", "result": "1,220,000"}, {"measurement": "Number of surviving microorganisms (surviving colonies)", "setting": "[2]; exposure 20 min.", "result": "101,000"}, {"measurement": "Number of surviving microorganisms (surviving colonies)", "setting": "[2]; exposure 30 min.", "result": "9,100"}, {"measurement": "Number of surviving microorganisms (surviving colonies)", "setting": "[2]; exposure 40 min.", "result": "1,260"}, {"measurement": "Number of surviving microorganisms (surviving colonies)", "setting": "[2]; exposure 50 min.", "result": 345}, {"measurement": "Number of surviving microorganisms (surviving colonies)", "setting": "[2]; exposure 60 min.", "result": 96}, {"measurement": "Killing of young mites", "setting": "[3]", "result": "all of the young mites were killed"}, {"measurement": "State of surviving large mites", "setting": "[3]", "result": "a few surviving large mites were not able to be active normally, which were dead as times went by"}, {"measurement": "Number of dead mites", "setting": "[3]; twenty mites, microscopic examination", "result": "most of the mites (for example, seventeen mites) were killed"}]}
